{"source": "paper PMC8012336", "about": "“An automated and high-throughput-screening compatible pluripotent stem cell-based test platform for developmental and reproductive toxicity assessment of small molecule compounds” (Cell Biology and Toxicology, 2020)", "key": {"[1]": {"tested_on": "HDFf (human dermal fibroblasts of fetal origin)", "experiment": "Manual human EST cytotoxicity assay, CellTiter-Glo, 5 d", "method": "(§1) The cytotoxicity assessment with a reduced assay time of 5 days combined with either NADH- or ATP-based detection was also carried out with human induced pluripotent stem cells (hiPSCs). […] Furthermore, differences in the cytotoxicity effects between the hiPSCs and HDFfs were more pronounced than in the mouse cells. Similar to the cytotoxicity-based assay the overall variance in the data is reduced when viability data was obtained by an ATP-based read-out.\n(§2) 96-well cell culture plates were coated with gelatin (0.1%) before plating mESC-D3. All peripheral wells of the assay plate were filled with 200 μl growth media. In order to assess compound toxicity on mESC-D3 and NIH/3T3 cells, cell suspensions of NIH/3T3, and mESC-D3 were prepared in growth media (1 × 10^4 cells/ml) and were transferred to all remaining wells (50 μl/well). A 7-point dilution series in growth media was prepared for each test compound and was transferred to the assay plate 2 h after cell seeding (150 μl/well). Afterward, the cells were incubated in a humidified atmosphere at 37 °C and 5% CO2. Three and 5 days after seeding the cell supernatant was replaced by freshly prepared compound solution (200 μl/well). Seven days after seeding the assay plate was taken out of the incubator and located at room temperature for 10 min, before cell supernatant was aspirated (80 μl/well) and CellTiter-Glo® reagent was dispensed (50 μl/well). The assay plate was placed on a shaker for 1 min and after another 10 min incubation at room temperature in the dark the luminescence signal was detected on a plate reader.\n(§3) Figure S1: Step-wise evolution of the cytotoxicity assay towards the use of human cell lines. Related to Figure 2. Cytotoxicity assays were carried out with two compound sets on hiPSC line ZIPi013-E and HDFf, from which they were derived. […] A) 5 day MTT assay and manual handling. B) As in A), but using CellTiter-Glo® viability assay. All points in the graph represent the mean of 6 individual data points, including the standard error."}, "hiPSC line ZIPi013-E": {"tested_on": "hiPSC line ZIPi013-E", "experiment": "Manual human EST cytotoxicity assay, CellTiter-Glo, 5 d", "method": "as §1, §2, §3"}}}
{"smiles": "NC(=O)NO", "note": "[Hydroxyurea, hydroxyurea]", "values": [{"measurement": "Cytotoxicity assay CTG, 5 d IC50 HDFf", "setting": "[1]", "result": 30.15, "unit": "µg/mL"}, {"measurement": "Cytotoxicity assay CTG, 5 d IC50 ZIPi013-E", "setting": "hiPSC line ZIPi013-E", "result": 0.8652, "unit": "µg/mL"}]}
